Key:
[1] = test system: NCTC 2544 human keratinocytes; assay: MTT assay, cell viability; format: cell-based; settings: for tolerability by NCTC2544 human keratinocytes: 2.5-5 and 10 μM
Protocol: The data represent mean values ±standard deviation. Each treatment was carried out in duplicate.
The data are expressed as mean values ±standard deviation. Each treatment was carried out in duplicate.
The MTT test is useful to assess in vitro cell viability following the treatment with diluted compounds. The MTT method has been used as an indirect measure of cell viability.
The effects on NCTC 2544 cell proliferation from compounds 18-β and POLY-GLY-S at different concentrations have been examined.
The cells have been plated at low densities and treated with different concentrations of active compounds and negative control, in culture medium EMEM, without phenol red supplemented at 10% with FCS, 2 mM L-glutamine, 1% NEAA solution and 1% antibiotic mixture for 24, 48 and 72 hours and cell viability has been assessed by the MTT assay. The cell viability percentage compared to control (FIGS. 1-2) has been calculated after 24, 48 and 72 hours of incubation. […] The same results have been obtained after a prolonged cells exposure (48-72 hours) to tested compounds for all the considered concentrations.

[2] = cited from earlier work
[3] = test system: expression of the TNF-α gene in NCTC 2544 human keratinocytes; assay: Inflammation assessment assay: expression of the TNF-α gene by RT-PCR in LPS-treated cells; format: cell-based; settings: for anti-inflammatory effect (inhibiting the expression of the TNF-α gene): 2.5-5-10 μM, after 48 hrs of treatment; for anti-inflammatory effect (inhibiting the expression of the TNF-α gene) / inhibition of the expression of the TNF-α gene: LPS 5 μg/ml; for inhibition of the expression of the TNF-α gene: 48 hrs of treatment, compared to cells treated only with LPS
Protocol: The NCTC 2544 cells were treated at 37° C. for 48 hours, at 5% CO2, with: basal culture medium, containing 2.5% fetal bovine serum (negative control), with: basal culture medium, containing 2.5% fetal bovine serum supplemented with LPS (5 μg/ml) (positive control), with: basal culture medium, containing 2.5% fetal bovine serum supplemented with LPS (5 μg/ml) and 18-β-glycyrrhetinic acid (18-β) at a concentration of 2.5-5-10 μM, with: basal culture medium, containing 2.5% fetal bovine serum supplemented with LPS (5 μg/ml), and POLY-GLY-S at a concentration of 2.5-5-10 μM. The results are expressed as a percentage of inflammation as compared to cells treated with LPS. The values represent the mean values of 2 experiments in duplicate.
The anti-inflammatory effects of ester having formula (Ia) of Example 1 (referred to as ‘POLY-GLY-S’ for shortness of description) have been investigated in an in vitro inflammation model, on NCTC2544 human keratinocytes and using lipopolysaccharide (LPS) from E. coli as mediator of inflammatory state. The effect of derivative in the models used has been compared to that of 18-β-glycyrrhetic acid (referred to as ‘18-β’ for shortness of description).
Furthermore, the in vitro inflammatory potential of POLY-GLY-S towards a positive control (cells treated with 5 μg/ml lipopolysaccharide) was determined. The data obtained have been compared to those obtained, in the same experimental model, using 18-β.
Inflammation Assessment Assay
The expression of the TNF-α gene on NCTC 2544 cells was assessed by RT-PCR.
The gene expression analysis implies four steps: • 1. Cell treatment with active compounds for 48 hrs; • 2. RNA extraction; • 3. cDNA reverse transcription; • 4. quantitative […].
In experimental conditions, in connection with the results obtained in the previous MIT assay, POLY-GLY-S and 18-β have been tested at a concentration of 20 μM (final concentration in the culture medium). Both positive control and negative control have been tested.
When the cells (NCTC 2544 human keratinocytes) had reached about 80% confluence, they were removed with trypsin/EDTA and seeded at a density of 1×10^6 cells/ml in 12-well plates and then incubated at 37° C., 5% CO2 (24 h).
When the cells had reached about 80% confluence, the complete medium was removed; cells were washed with PBS 1× and incubated in EMEN (EBSS) with 2.5% FBS, supplemented with 2 mM L-glutamine, 1% NEAA solution and 1% antibiotic mixture at 37° C., 5% CO2 for at least 4 hrs.
POLY-GLY-S and 18-β were dissolved in EMEN supplemented with 2.5% FBS, 2 mM L-glutamine, 1% NEAA solution and 1% penicillin (10,000 U/ml)/streptomycin (10,000 μg/ml) mixture.
Controls only containing culture medium (negative control) and culture medium plus LPS (5 μg/ml) (positive control) have been included in each plate.
Cells were exposed to increasing concentrations of compounds to be tested, i.e. 2.5-5-10 μM.
To each well LPS at a concentration of 5 μg/ml was added. Each sample was tested in duplicate.
Then cells were incubated at 37° C., 5% CO2 for 24 hrs.
Total RNA was extracted from cells using a single homogeneous solution Tri-reagent (Sigma Aldrich) to isolate RNA following manufacturer's instructions.
The extracted and quantified total RNA was amplified using the “High-Capacity cDNA Reverse transcription Kit” (Applied Biosystems).
RT-PCR was carried out using TaqMan linear probes (Applied Biosystems). These probes are the most used and published detection system for qPCR applications. In stock probes and primer were selected based on previous specific bibliographic studies.
The relative quantification method was used where the gene relative concentration of interest (target) is compared with unknown samples to a calibrator or control sample (untreated cells).
10 μl TaqMan 2× Gene Expression master Mix and 1 μl 20× TaqMan Gene Expression were added to cDNA. […]

[4] = 24 hours of incubation, all tested concentrations (18-β 2.5-80 μM, ester (Ia) 0.625-80 μM)
[5] = prolonged exposure 48-72 hours, all considered concentrations

| Compound | tolerability by NCTC2544 human keratinocytes [1] | cytotoxic effect on NCTC2544 compared to control (MTT, % viability) [1, 4] | cytotoxic effect on NCTC2544 compared to control (MTT, % viability) [1, 5] | solubility in ethanol ([2]; ethanol) | solubility in oils ([2]; oils) | solubility in water ([2]; water) | anti-inflammatory effect (inhibiting the expression of the TNF-α gene) [3] | inhibition of the expression of the TNF-α gene ([3]; 2.5 μM) | inhibition of the expression of the TNF-α gene ([3]; 5 μM) | inhibition of the expression of the TNF-α gene ([3]; 10 μM) | reduction of the expression of the TNF-α gene ([3]; all the concentrations assayed, 48 hours of incubation (conclusions)) |
| --- | --- | --- | --- | --- | --- | --- | --- | --- | --- | --- | --- |
| CC1(C)[C@@H](O)CC[C@]2(C)[C@H]3C(=O)C=C4[C@@H]5C[C@@](C)(C(=O)O)CC[C@]5(C)CC[C@@]4(C)[C@]3(C)CC[C@@H]12 [18-β, 18-Beta glycyrrhetinic acid, reference compound] | well tolerated | none | same results | soluble | insoluble | insoluble | no longer had anti-inflammatory effect |  |  |  |  |
| CC1(C)[C@@H](O)CC[C@]2(C)[C@H]3C(=O)C=C4[C@@H]5C[C@@](C)(C(=O)OCC(O)C(O)C(O)C(O)COCC(O)COCC(O)COCC(O)CO)CC[C@]5(C)CC[C@@]4(C)[C@]3(C)CC[C@@H]12 (stereo partly drawn) [POLY-GLY-S, glycyrrhetinic ester of polyglycerol-3-sorbitol] | well tolerated | none | same results |  |  |  | significantly effective | 43.99% | 40.71% | 54.36% | at least 50% |

Reference: US9394335B2, “Esters of glycyrrhetinic acid, preparation and cosmetic applications thereof” (GIULIANI S.P.A., priority 2012, dated 2016)
